As a reminder, the IC50 is the concentration that inhibits the measured activity by half.

The values that follow come from patent publication US20230346743A1, “COMBINATION CANCER THERAPIES” (The Board of Regents of the University of Oklahoma, priority 2018, published 2023).

The test system of one data set is A2780 (WT p53). Put plainly: MTT cytotoxicity assay and Chou-Talalay drug interaction. The data set is classed as cell-based, human. The procedure:
Cells plated at 2000 cells/well in 96 well microtiter plates were incubated for 36-48 h and treated with a range of doses and combinations of SHetA2 and PRIMA-1 or PRIMA-1^MET, or the same volume of DMSO solvent for 72 h of incubation. The percentage of growth for single drug treatments or fold effect (1 - ratio of treated/untreated growth) was measured using the CellTiter 96 AQueous Non-Radioactive Cell Proliferation Assay (Promega, Madison, WI, USA) and the BioTeK SYNERGY H1 (BioTeK, Winooski, VT, USA). Each experiment was performed in triplicate and repeated 2-3 times.
The potencies (IC50′s) of SHetA2 or PRIMA-1 were determined using GraphPad Prism 6 software analysis of average MTT Optical Density vs drug dose. […] Single drug treatments at doses surrounding the IC50 values were evaluated parallel. All treatments were performed in triplicate and averages used to draw isobolograms and calculate combination indices (CI) and dose-reduction indices (DRIs) using CompuSyn Software according to the Chou and Talalay method (op cit). All experiments were repeated at least twice for each cell line to confirm results.
(In general: Tetrazolium assays rely on reduction of a dye to a coloured formazan, in cell work by metabolically active cells.)

A further data set has as its system p21. Put plainly: Western blots of p21 in ovarian cancer cell lines. The format is cell-based, human. To be noted: A2780, SKOV3, SKOV3 R273H, SKOV3 R248W. The method, then: (§1) Proteins were extracted from cell cultures using M-PER mammalian protein extraction reagent (ThermoFisher, Waltham, MA, USA) and volumes corresponding to 30 µg determined with BCA reagent (ThermoFisher, Waltham, MA, USA) were electrophoresed into a SDS-PAGE gel and transferred to PVDF membranes. Membranes were blocked (5% dry skim milk powder in TBST buffer) for at least 1 h or overnight, washed thrice with TBST and then incubated with primary antibody: p53 DO-1, β-actin, histone H3, GAPDH (Santa Cruz Biotechnology, Dallas, TX, USA) and mortalin, Tom20, V5 tag antibodies, p21, PARP, SLC7A11, caspase 3 (Cell Signaling Technology, Danvers, MA, USA) for at least 1 h or overnight. After three washes, membranes were incubated with anti-mouse HRP conjugated (Santa Cruz Biotechnology, Dallas, TX, USA) or anti-Rabbit HRP conjugated (Cell Signaling Technology, Danvers, MA, USA) for 40 min. Membranes then were washed and developed with ECL reagents (BioRad, Hercules, CA, USA). Bands were imaged and quantified (ChemiDoc imaging system with Image Lab Software/BioRad).
(In general: A western blot detects proteins with antibodies after separation by electrophoresis.)

Data set [1] deals with p53. Put plainly: p53 cellular localization in hFTSECs. The format is cell-based, human. To be noted: 24 h. The procedure: (§2) Cytoplasmic and nuclear protein fractions were isolated from cultures using NE-PER Nuclear and Cytoplasmic Extraction Reagents (ThermoFisher, Waltham, MA, USA) and the Mitochondria/Cytosol Fractionation Kit (ThermoFisher, Waltham, MA, USA) and protein concentrations determined with BCA reagent (ThermoFisher, Waltham, MA, USA).
as §1, with “Software/BioRad). […]” for “Software/BioRad).”

For a further data set, the system named is Cervical Cancer. Put plainly: Dose reduction index at various fold effects in cervical cancer. To be noted: cell line not named. The data set is classed as cell-based, human. The source says: Combination Indices (CI's) were derived to determine the level of synergy using the Chow and Talalay method. […] The Dose Reduction Indices (DRIs) were derived to determine the level of reduction for one drug that could be allowed by addition of the second drug at various fold effects (Fas) of the combination treatment (Table 16).

A further data set has as its system NCI 60-cell line panel. Conditions: cited from earlier work.
Data set [2] has as its system p53. In words: p53 cellular localization (immunofluorescence, Western blots of fractions) in ovarian cancer cell lines. The data set is classed as cell-based, human. To be noted: A2780 and OV90 ovarian cancer cell lines. The method, then:
as §2
as §1, with “Software/BioRad). […]” for “Software/BioRad).”

Data set [3] is described as follows: Toxicity in the MESOV mouse model (body weight, ascites, kidney and liver histology). The data set is classed as in vivo. To be noted: mouse, in vivo, ip. The procedure:
Four-week-old female athymic nude mice (NCr-Foxn1^nu) were obtained from Taconic Biosciences under an approved Institutional Animal Care and Use Committee (IACUC) protocol. Mice were acclimatized for two weeks, fed with a standard diet and ear tagged during the acclimatization period. The timing to tumor development after intraperitoneal injection with various amounts of MESOV cells was determined in a pilot study prior. In the intervention experiment, 6-week-old mice were injected with 20 million MESOV human ovarian cancer cells in their intraperitoneal region. Drug treatment was initiated 4 weeks after the injection of cancer cells. Mice were randomized to four treatment groups before the start of treatment based on their body weight. There was no significant (one-way ANOVA, p >0.999) difference in body weight between groups at the start of treatment. Twelve mice were allocated to each group based on the power analysis performed while designing experiment. The sample size was determined to provide over 80% power to detect a 915 mm^3 difference in tumor volume between PRIMA-1^MET treatment alone and the drug combination treatment using a two-sided 0.05 level t-test. SHetA2 was administered by gavage at 60 mg/kg in 30% Kolliphor HS15 (Sigma). Controls were gavaged with Kolliphor HS15 (30% in water). PRIMA-1^MET (10 mg/kg) was dissolved in phosphate buffered saline and injected into the peritoneum of mice every other day. Initially SHetA2 dosing was administered every day for two weeks in SHetA2 alone and drug combination groups, and then switched to every other day for the next three weeks due to the stress caused to the mice by daily gavage. Oral gavaging was performed with sterile disposable plastic feeding tubes 20 ga × 38 mm (Instech Laboratories, Inc., Plymouth Meeting, PA, USA). Three mice in the drug combination group died after two weeks of drug treatment due to gavaging incidents. Body weights were recorded and animal health was monitored weekly. After the end of drug intervention period, all mice were euthanized by CO2 asphyxiation followed by exsanguination, their tumors and other vital organs were collected for further analysis. After measuring the total tumor weight, a portion of the tumors were snap frozen in liquid nitrogen and another portion was formalin fixed. The formalin fixed tissue samples were paraffin embedded, sectioned and stained with hematoxylin and eosins for histology studies. An experienced pathologist reviewed blinded histology slides for kidney and liver toxicity.

Take `CC1(C)CC(C)(C)c2cc(NC(=S)Nc3ccc([N+](=O)[O-])cc3)ccc2S1` [SHetA2]: the IC50 in the data set on A2780 (WT p53) (A2780 cells with shRNA knockdown of p53, MTT) turned out to be 4.8 µM; in the data set with A2780 (WT p53) (A2780 cells without p53 knockdown (empty vector), MTT), 2.8 µM. Further, the “p21 protein (Western blot)” value in the data set with p21 was “increased p21 protein in all cell lines evaluated regardless of p53 status”. The p53 cellular localization result in the data set with p53 [1] was “minimal effects on p53 cellular localization”. The “SHetA2 Dose” value was found to be 5.44 in the data set on Cervical Cancer (Fold Effect (Fa) 0.05), 8.23 in the data set with Cervical Cancer (Fold Effect (Fa) 0.75), 12.43 with Cervical Cancer (Fold Effect (Fa) 0.90) and 16.47 with Cervical Cancer (Fold Effect (Fa) 0.95). For the same compound, the “Activity against cancer cell lines” value in the data set with NCI 60-cell line panel is on record as “active against all cancers present in the NCI 60-cell line panel”. In addition, in the data set on p53 [2], the “p53 in nuclei (immunofluorescent imaging)” value is “dose-dependent elevation of both wild type and mutant p53 in nuclei”. In addition, the “Effects on body weight or ascites (abdominal size)” value in data set [3] was “no significant effects on body weight or ascites”. Moreover, the “Kidney or liver toxicity (H & E histology)” value in data set [3] is on record as “did not cause kidney or liver toxicity”.
